# Measured values as given in patent US20210137118A1, “NEW USES OF 9-(3-DEOXY-BETA-D-RIBOFURANOSYL)ADENINE” (Agroquimicos De Levante, S.A., priority 2018, published 2021).
# Legend:
# Meloidogyne incognita = assay: In vitro test on M. incognita eggs (egg hatching, petri dishes); details: tested concentration 5%
# Halyomorpha halys = assay: Laboratory tests on heteroptera; format: in vivo
# Anacridium aegyptium = assay: Laboratory tests on orthoptera; format: in vivo
smiles,measurement,setting,value
Nc1ncnc2c1ncn2[C@@H]1O[C@H](CO)C[C@H]1O [9-(3-Deoxy-β-D-ribofuranosyl)adenine],action on free larvae included in the ovisacs,Meloidogyne incognita,good action
same,effect on egg embryogenesis,Meloidogyne incognita,inhibition of egg embryogenesis
same,effect on adult forms of heteroptera (Halyomorpha halys),Halyomorpha halys,no significant effect
same,effect on adult forms of orthoptera (Anacridium aegyptium),Anacridium aegyptium,no significant effect
